From patent US9533965B2, “2-arylbenzofuran-7-formamide compounds, preparation method and use thereof” (SHANGHAI INSTITUTE OF MATERIA MEDICA, CHINESE ACADEMY OF …, priority 2012, dated 2017)

What was measured:
TNKS1 = target: T1, TNKS1 (Homo sapiens, UniProt O95271); assay: Enzymatic inhibition on the PARP family members (ELISA), TNKS1; type: biochemical; details: PARP family panel, 30° C.
T1 sequence (O95271 1-1327): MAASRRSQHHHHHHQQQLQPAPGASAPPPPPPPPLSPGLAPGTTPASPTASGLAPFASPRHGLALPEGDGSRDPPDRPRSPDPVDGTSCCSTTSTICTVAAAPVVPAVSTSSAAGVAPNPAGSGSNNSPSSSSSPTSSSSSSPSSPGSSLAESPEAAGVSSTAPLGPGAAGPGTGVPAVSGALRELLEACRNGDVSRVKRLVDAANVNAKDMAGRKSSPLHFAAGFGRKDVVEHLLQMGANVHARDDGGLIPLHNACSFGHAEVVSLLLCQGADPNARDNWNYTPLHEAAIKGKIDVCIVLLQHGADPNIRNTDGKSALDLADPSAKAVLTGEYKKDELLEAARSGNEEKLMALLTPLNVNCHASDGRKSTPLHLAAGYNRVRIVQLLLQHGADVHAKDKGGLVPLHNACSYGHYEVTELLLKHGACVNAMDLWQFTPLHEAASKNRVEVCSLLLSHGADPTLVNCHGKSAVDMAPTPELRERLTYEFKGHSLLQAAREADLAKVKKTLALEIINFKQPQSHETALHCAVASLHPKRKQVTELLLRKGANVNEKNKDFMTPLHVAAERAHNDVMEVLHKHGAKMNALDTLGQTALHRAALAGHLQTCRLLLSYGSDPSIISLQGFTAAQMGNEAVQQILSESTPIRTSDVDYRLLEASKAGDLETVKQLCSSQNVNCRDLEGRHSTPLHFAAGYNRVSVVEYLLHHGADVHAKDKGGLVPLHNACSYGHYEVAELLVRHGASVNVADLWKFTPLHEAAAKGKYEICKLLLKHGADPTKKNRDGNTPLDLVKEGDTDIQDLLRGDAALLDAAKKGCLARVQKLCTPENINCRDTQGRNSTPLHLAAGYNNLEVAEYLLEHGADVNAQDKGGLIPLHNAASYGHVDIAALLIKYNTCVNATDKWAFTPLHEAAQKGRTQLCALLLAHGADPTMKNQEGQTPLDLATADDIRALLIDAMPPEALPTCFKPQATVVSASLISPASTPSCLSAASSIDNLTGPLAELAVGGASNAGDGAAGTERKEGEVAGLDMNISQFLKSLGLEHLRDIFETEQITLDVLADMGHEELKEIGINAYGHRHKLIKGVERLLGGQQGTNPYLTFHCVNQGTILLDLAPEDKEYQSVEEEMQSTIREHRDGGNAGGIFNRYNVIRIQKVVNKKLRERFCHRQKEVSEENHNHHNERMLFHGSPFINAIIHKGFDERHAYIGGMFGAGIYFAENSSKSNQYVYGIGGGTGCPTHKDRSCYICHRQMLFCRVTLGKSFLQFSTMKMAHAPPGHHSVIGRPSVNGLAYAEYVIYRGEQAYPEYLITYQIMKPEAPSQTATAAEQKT

PARP1 = PARP1 (Homo sapiens, UniProt P09874); assay: Enzymatic inhibition on the PARP family members (ELISA), PARP1; type: biochemical
Chain of PARP1 (P09874 whole entry): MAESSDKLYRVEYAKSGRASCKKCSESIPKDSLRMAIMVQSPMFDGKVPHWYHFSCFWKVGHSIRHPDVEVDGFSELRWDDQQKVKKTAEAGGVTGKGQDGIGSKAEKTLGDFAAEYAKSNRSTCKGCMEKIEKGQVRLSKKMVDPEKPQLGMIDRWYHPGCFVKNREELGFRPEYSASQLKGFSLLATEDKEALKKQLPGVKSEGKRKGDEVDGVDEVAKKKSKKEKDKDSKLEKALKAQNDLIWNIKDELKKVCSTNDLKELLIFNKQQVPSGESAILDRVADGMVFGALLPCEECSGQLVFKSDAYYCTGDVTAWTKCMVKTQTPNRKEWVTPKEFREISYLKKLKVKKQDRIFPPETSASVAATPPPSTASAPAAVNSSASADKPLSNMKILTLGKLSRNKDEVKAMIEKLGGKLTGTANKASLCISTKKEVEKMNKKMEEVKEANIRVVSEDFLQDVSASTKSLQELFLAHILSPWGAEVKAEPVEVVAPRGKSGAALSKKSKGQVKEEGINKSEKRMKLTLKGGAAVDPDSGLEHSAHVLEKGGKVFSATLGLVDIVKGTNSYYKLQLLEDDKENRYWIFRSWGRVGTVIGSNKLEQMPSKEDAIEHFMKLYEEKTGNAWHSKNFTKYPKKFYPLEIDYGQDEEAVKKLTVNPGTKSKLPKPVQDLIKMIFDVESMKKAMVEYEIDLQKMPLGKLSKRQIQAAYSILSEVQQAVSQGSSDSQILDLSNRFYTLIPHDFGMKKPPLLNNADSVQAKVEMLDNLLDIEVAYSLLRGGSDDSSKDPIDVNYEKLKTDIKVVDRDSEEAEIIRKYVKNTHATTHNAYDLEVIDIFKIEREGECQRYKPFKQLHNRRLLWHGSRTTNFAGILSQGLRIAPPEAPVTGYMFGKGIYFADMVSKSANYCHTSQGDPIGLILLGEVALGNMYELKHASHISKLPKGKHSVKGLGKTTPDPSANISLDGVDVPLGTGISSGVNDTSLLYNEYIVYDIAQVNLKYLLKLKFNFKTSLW

IC50 (TNKS1): 1600 nM
inhibitory activity on PARP1/2 relative to other isoenzymes in the family (PARP1; PARP1/2 versus PARP3, TNKS1, TNKS2, PARP6): at least 400 times
IC50 (PARP1; PARP family panel): 3.2 nM
Compound: CNCc1ccc(-c2cc3cc(F)cc(C(N)=O)c3o2)cc1 [compound 5b, 5-fluoro-2-{4-[(methylamino)methyl]phenyl}benzofuran-7-carboxamide]
